Experiments:
[1] = test system: HMC3 (human microglia) cell line; test: pHrodo-myelin phagocytosis/cell viability high content imaging assay: viability (cell count, nuclear area, nuclear intensity)
Procedure, shortened: (§1)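 Immortalized microglia are treated with compound (10 μM, single concentration) for 48 h, the final 20 h alongside pHrodo-myelin. Data are the mean of duplicates, reported as % of untreated control.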

[2] = test system: BV2 (mouse microglia) cell line; test: as above
Procedure, shortened: as §1

[3] = test system: HMC3 (human microglia) cell line; test: pHrodo-myelin phagocytosis/cell viability high content imaging assay: phagocytosis signal; format: cell-based
Procedure, shortened: (§2)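 Cells receive pHrodo-myelin, then are imaged at high content approximately 22 hours later. Phagocytosis signal and viability are captured in the same run. Three measurements are extracted per well.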

[4] = test system: BV2 (mouse microglia) cell line; test: as above; format: cell-based
Procedure, shortened: as §2

[5] = HMC3, compound 10 uM, 48 hours treatment
[6] = BV2, compound 10 uM, 48 hours treatment
[7] = HMC3, compound 10 uM, pHrodo-myelin
[8] = BV2, compound 10 uM, pHrodo-myelin
[9] = HMC3 cells, 10 uM compound, 48 hours treatment
[10] = BV2 cells, 10 uM compound, 48 hours treatment
[11] = HMC3 cells, 10 uM compound, 48 hours treatment, pHrodo-myelin final 20 hours
[12] = BV2 cells, 10 uM compound, 48 hours treatment, pHrodo-myelin final 20 hours

SMILES	1. Cell count (% control) [1, 5] [% control]	2. Nuclear Area (% Control) [1, 5] [% Control]	3. Nuclear DNA Intensity (% control) [1, 5] [% control]	1. Cell count (% control) [2, 6] [% control]	2. Nuclear Area (% Control) [2, 6] [% Control]	3. Nuclear DNA Intensity (% control) [2, 6] [% control]	4. Phagocytosis (% control) [3, 7] [% control]	4. Phagocytosis (% control) [4, 8] [% control]	1. Cell count (% control) [1, 9] [% control]	2. Nuclear Area (% Control) [1, 9] [% Control]	3. Nuclear DNA Intensity (% control) [1, 9] [% control]	1. Cell count (% control) [2, 10] [% control]	2. Nuclear Area (% Control) [2, 10] [% Control]	3. Nuclear DNA Intensity (% control) [2, 10] [% control]	4. Phagocytosis (% control) [3, 11] [% control]	4. Phagocytosis (% control) [4, 12] [% control]	also measured
CCc1cc2c(cc1N1CCC(N3CCOCC3)CC1)C(C)(C)c1[nH]c3cc(C#N)ccc3c1C2=O [UNC10245077A]	0.0	0.0	0.0	128.2	94.3	130.0	22.4	169.6									
CNC(=O)c1c(F)cccc1Nc1nc(Nc2cc3c(cc2OC)CCN3C(=O)CN(C)C)nc2[nH]ccc12 [UNC10302864A]									108.9	90.1	123.0	66.3	109.6	102.8	58.3	89.4	
COc1cc(C(=O)NS(=O)(=O)c2ccccc2C)ccc1Cc1cn(C)c2ccc(NC(=O)OC3CCCC3)cc12 [UNC10121228A]									110.1	100.7	103.6	90.6	103.2	103.9	87.2	129.0	
Cc1ccc(NC(=O)c2ccc(CN3CCN(C)CC3)cc2)cc1Nc1nc(-c2cccnc2)cs1 [UNC10126573A, masitinib, reference compound]									71.0	92.7	124.1	7.7	107.9	43.3	3.5	0.0635	cytotoxicity in human microglial cells (cell count < 70% control) ([1]; HMC3, 10 μM, 48 hours, cell count): cytotoxicity only in mouse microglia; cytotoxicity in mouse microglial cells (cell count < 70% control) ([2]; BV2, 10 μM, 48 hours, cell count): displayed cytotoxicity only in mouse microglia
C[C@H](CCCC(C)(C)O)[C@H]1CC[C@H]2[C@@H]3CC=C4C[C@@H](O)CC[C@]4(C)[C@H]3CC[C@]12C [UNC10302834A]	99.4	81.6	144.3	75.6	103.0	136.7	45.5	50.2									
C=C1[C@@H](C)[C@H]2[C@H](Cc3ccccc3)NC(=O)[C@]23[C@H](OC(C)=O)/C=C/[C@@](C)(O)C(=O)[C@@H](C)C/C=C/[C@H]3[C@@H]1O [Cytochalasin-D]																	1. Cell count (% control) ([1]; HMC3, control compound at 4uM): 57.1 % control; 2. Nuclear Area (% Control) ([1]; HMC3, control compound at 4uM): 76.9 % Control; 3. Nuclear DNA Intensity (% control) ([1]; HMC3, control compound at 4uM): 178.9 % control; 1. Cell count (% control) ([2]; BV2, control compound at 4uM): 9.1 % control; 2. Nuclear Area (% Control) ([2]; BV2, control compound at 4uM): 119.3 % Control; 3. Nuclear DNA Intensity (% control) ([2]; BV2, control compound at 4uM): 141.3 % control; 4. Phagocytosis (% control) ([3]; HMC3, control compound at 4uM, pHrodo-myelin): 4.8 % control; 4. Phagocytosis (% control) ([4]; BV2, control compound at 4uM, pHrodo-myelin): 18.4 % control
N#CC(CCCN1CCN(/N=C/c2cccnc2)CC1)(c1ccccc1)c1ccccc1 [UNC10302973A]									118.4	102.3	89.1	73.0	106.0	96.8	84.2	132.9	
CC(=O)N1CCN(c2ccc(OC[C@H]3CO[C@](Cn4ccnc4)(c4ccc(Cl)cc4Cl)O3)cc2)CC1 [UNC10100724A]									125.5	96.3	100.1	129.7	103.8	104.7	144.4	280.0	
O=S(=O)(c1ccc2c(c1)C(=NO)c1cc(S(=O)(=O)N3CCCCC3)ccc1-2)N1CCCCC1 [UNC10302976A]									69.8	63.2	194.1	11.0	116.9	256.7	12.0	51.8	
C=Cc1c(C)c2cc3nc(cc4[nH]c(cc5nc(cc1[nH]2)C(C)=C5CCC(=O)O)c(CCC(=O)OC)c4C)[C@@]1(C)C3=CC=C(C(=O)OC)[C@H]1C(=O)OC [UNC10303159A]	113.8	131.2	126.0	114.7	121.1	113.2	5.8	174.1									
O=S(=O)(NC1CCNCC1)c1cc(S(=O)(=O)c2ccccc2)ccc1C(F)(F)F [UNC10302840A]	108.8	103.9	95.8	104.4	105.6	95.4	90.9	189.7									
CCN(CC)c1ccc(/C=N/NC(=O)c2ccc(O)cc2)cc1 [UNC10302868A]									102.3	101.3	100.0	64.8	105.9	100.1	65.0	142.8	
Cc1cc(OCc2nnc(SC3CCCC3)n2-c2cccnc2)ccc1-c1ccc(S(C)(=O)=O)cc1 [UNC10302838A]	58.3	51.1	240.9	15.0	98.1	45.6	33.5	0.0									
C[C@@H](Oc1cc(-c2cnn(C3CCNCC3)c2)cnc1N)c1c(Cl)ccc(F)c1Cl [UNC10220526A]									41.7	75.9	183.7	44.9	109.8	15.3	0.09	0.00113	
CCN(C)C(=O)Oc1cccc([C@H](C)N(C)C)c1 [UNC10303091A]									141.4	98.9	95.5	139.1	103.4	100.1	80.4	166.0	
Cc1cccc(-c2nn3c(c2-c2ccnc4ccc(C(N)=O)cc24)CCC3)n1 [UNC10245080A]									126.0	104.6	85.7	99.1	108.1	97.4	85.1	174.0	
O=C1C=C(NCCc2cc(Br)c(O)c(Br)c2)C(=O)c2ncccc21 [UNC10303225A]	62.3	83.0	132.4	8.3	122.7	97.1	54.3	163.7									
CC(C)(C)c1cnc(CSc2cnc(NC(=O)C3CCNCC3)s2)o1 [UNC10302585A]									57.0	118.9	102.8	5.4	123.4	85.3	156.3	98.5	
